Target: V-ATPase (Gallus gallus)
Assay: Compound was tested for inhibition of V-ATPase from Chicken osteoclasts (cOc)

IC50: 1900 nM
Structure (SMILES): COC(=O)/C(=C\C=C\c1cc2cc(Cl)c(Cl)cc2[nH]1)OC [(2E,4E)-5-(5,6-Dichloro-1H-indol-2-yl)-2-methoxy-penta-2,4-dienoic acid methyl ester]

— BindingDB's records for doi:10.1021/jm9800144 (Smithkline Beecham, 1998)
